The values below come from article PMC5651845, “A New Generation of Arachidonic Acid Analogues as Potential Neurological Agent Targeting Cytosolic Phospholipase A2” (Scientific Reports, 2017).

Data set [1] deals with T1, recombinant cPLA2 (Homo sapiens, UniProt P47712).
T1 construct: purchased US Biological P4074-03R
T1 sequence (P47712 1-749): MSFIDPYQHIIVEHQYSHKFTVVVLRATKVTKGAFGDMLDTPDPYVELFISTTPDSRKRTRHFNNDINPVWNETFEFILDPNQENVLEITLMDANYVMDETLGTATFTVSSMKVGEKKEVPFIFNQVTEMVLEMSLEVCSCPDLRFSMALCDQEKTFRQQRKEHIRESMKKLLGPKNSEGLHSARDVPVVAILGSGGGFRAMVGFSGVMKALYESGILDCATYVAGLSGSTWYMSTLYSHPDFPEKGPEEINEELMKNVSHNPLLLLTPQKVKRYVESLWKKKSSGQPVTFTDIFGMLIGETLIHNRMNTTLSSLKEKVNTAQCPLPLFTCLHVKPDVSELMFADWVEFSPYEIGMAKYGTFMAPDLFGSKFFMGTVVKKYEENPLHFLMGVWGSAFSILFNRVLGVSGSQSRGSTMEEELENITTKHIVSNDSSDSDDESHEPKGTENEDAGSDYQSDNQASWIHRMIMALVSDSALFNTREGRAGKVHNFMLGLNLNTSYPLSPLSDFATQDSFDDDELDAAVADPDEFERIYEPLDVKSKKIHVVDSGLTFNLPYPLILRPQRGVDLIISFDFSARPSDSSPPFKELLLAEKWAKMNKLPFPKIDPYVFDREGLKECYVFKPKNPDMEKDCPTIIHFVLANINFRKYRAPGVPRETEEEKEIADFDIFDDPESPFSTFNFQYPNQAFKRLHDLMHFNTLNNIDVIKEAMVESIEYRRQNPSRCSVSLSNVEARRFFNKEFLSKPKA
Description: EnzChek phospholipase A2 fluorogenic assay (% activity) at 10 μM. It is filed as biochemical. The settings on record: 10 μM compound; for remaining activity at 10 µM: 1 h, room temperature. The method, then:
The compounds were evaluated with a fluorogenic PLA2 assay kit (EnzChek® Phospholipase A2 Assay Kit, Catalog No: E10217) at a standard 10 μM concentration. Potential inhibitors were determined by their ability to lower cPLA2 activity to a greater extent than 1a.
The assay was conducted according to the manufacturer’s instruction (E10217, Molecular Probes) with slight modification. Briefly, substrate solution was separately prepared by mixing 5 μL of DOPG, 5 μL of DOPC and 5 μL of substrate respectively in 1.5 mL of 1X phospholipase A2 reaction buffer. The mixture was vortexed vigorously for 3 min before allowing to stand at room temperature for 1 h. 48 μL of 1X phospholipase A2 reaction buffer were added into each well of a 96-wells plate. This was followed by addition of 1 μL of recombinant cPLA2 (P4074-03R, US Biological) and 1 μL of 1 mM of the respective compound dissolved in DMSO. The final concentration of the test compound achieved is 10 μM. The reaction was initiated by adding 50 μL of the substrate solution and incubating at room temperature for 1 h. Fluorescence was measured using a Varioskan plate reader (Thermo Scientific, MA, USA) by exciting at 485 nm, while fluorescence emission was detected at 515 nm. Positive control was performed when 1 μL of test compound was replaced by vehicle DMSO. % activity was expressed as the mean value of duplicate wells from three experiments. % activity was calculated by the following formula1 %activity=fluorescenceoftestedwell−background/fluorescenceofpostivecontrol−background

Data set [2] addresses T1, recombinant cPLA2. Nature of the data set: EnzChek phospholipase A2 fluorogenic assay (IC50). It is filed as biochemical. The procedure: The assay was conducted as described above. Instead of adding a fixed concentration of the test compound, various concentrations of compound were reconstituted in DMSO. 48 μL of 1X phospholipase A2 reaction buffer were added into each well of a 96-wells plate. This was followed by addition of 1 μL of recombinant cPLA2 (P4074-03R, US Biological) and 1 μL of the respective concentration of the test compound dissolved in DMSO. The reaction was initiated by adding 50 μL of the substrate solution and incubating at room temperature for 1 h. Fluorescence was measured using a Varioskan plate reader by exciting at 485 nm, while fluorescence emission was detected at 515 nm. Positive control was performed when 1 μL of test compound was replaced by vehicle DMSO. IC50 was expressed as the mean value of duplicate wells from three experiments.

A further data set concerns BV-2 cells. Description: MTS cell proliferation assay on BV-2 cells. The format is cell-based, murine. The settings on record: 10 μM, 48 h and 72 h, vs vehicle control. The method, then: (§1) To explore whether the inhibitors are cytotoxic, MTS assay were conducted on BV-2 cells, a murine microglial cell line derived from post-natal mouse cerebella, and HEK293T cells that are derived from human embryonic kidney. Both cell types were treated with 10 μM of 1a, 2g and 2i for 48 h and 72 h (Fig. 3A,B). Dimethyl sulfoxide (DMSO) vehicle control was also included as the compounds were dissolved in DMSO.
(§2) Cells were plated on a 96-wells plate and grown for 24 h to a density of 8000 cells per well for both HEK293T and BV-2 cells. Cells were cultured at 37 °C under a 5% CO2 environment in 100 μL of culture medium. Thereafter, the compound of interest dissolved in culture medium at a concentration of 10 μM was replaced into each well. DMSO was added as vehicle in the control group. 3 biological replicates were performed. The plates were then incubated at 37 °C with 5% CO2 for 48 h and 72 h. At each individual time point, 20 μL of CellTiter 96® AQueous One Solution (MTS reagent) was added into each well and re-incubated at 37 °C with 5% CO2 without light for 3 h. Colorimetric readings were taken using a Varioskan plate reader at 490 nm and analyzed. Three independent biological repeats with four technical replicates were performed.

Another data set has as its system HEK293T cells. Nature of the data set: MTS cell proliferation assay on HEK293T cells. The format is cell-based, human. The settings on record: 10 μM, 48 h and 72 h, vs vehicle control. The method, then: as §1, §2
Data set [3] addresses T2, sPLA2, human recombinant type V (Homo sapiens, UniProt P39877).
T2 construct: purchased Cayman Chemical 10009563
T2 sequence (P39877 21-138): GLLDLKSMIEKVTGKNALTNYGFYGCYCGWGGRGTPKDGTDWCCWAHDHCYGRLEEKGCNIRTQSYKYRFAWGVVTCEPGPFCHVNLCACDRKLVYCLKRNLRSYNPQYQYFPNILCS
Nature of the data set: EnzChek phospholipase A2 fluorogenic assay (selectivity) with sPLA2. It is filed as biochemical. The settings on record: 10 μM. The method, then: To further explore their selectivity towards cPLA2, 10 μM of 2g and 2i were evaluated for their inhibition against recombinant sPLA2 using the fluorogenic PLA2 assay (Fig. 3C).
The assay was conducted as described above. Instead of adding cPLA2, it was replaced by sPLA2. 48 μL of 1X phospholipase A2 reaction buffer was added into each well of a 96-wells plate. This was followed by addition of 1 μL of sPLA2, human recombinant type V (10009563, Cayman Chemical) and 1 μL of 1 mM of the respective compound or thioetheramide-PC (62750, Cayman Chemical) dissolved in DMSO. The final concentration of the test compound achieved is 10 μM. The reaction was initiated by adding 50 μL of the substrate solution and incubating at room temperature for 1 h. Fluorescence was measured using a Varioskan plate reader by exciting at 485 nm, while fluorescence emission was detected at 515 nm. Positive control was performed when 1 μL of test compound was replaced by vehicle DMSO. % activity was expressed as the mean value of duplicate wells from four experiments. % activity was calculated by the following formula:2 %activity=fluorescenceoftestedwell−background/fluorescenceofpostivecontrol−background

Data set [4] has as its target T2, sPLA2, human recombinant type V. On the set-up: method as in PMID 2303420. The settings on record: cited from earlier work.

With `CCCCC/C=C\C/C=C\C/C=C\C/C=C\CCCC(=O)C(F)(F)F` [1a, arachidonyl trifluoromethyl ketone, reference compound], at recombinant cPLA2 [1], the inhibition at 10 µM worked out at 60% and the remaining activity at 10 µM came out at 40 ± 0.9%. Moreover, the IC50 at recombinant cPLA2 [2] amounted to 16.5 ± 3 µM. For the same compound, the “cytotoxicity (MTS) on BV-2 cells” value in the data set with BV-2 cells was “no statistical differences in cell survival”. In addition, in the data set with HEK293T cells, the “cytotoxicity (MTS) on HEK293T cells” value is on record as “no statistical differences in cell survival”.

Turning to `CCCCC/C=C\C/C=C\C/C=C\C/C=C\CCCCC(=O)NCCCCC(=O)O` [2g], at recombinant cPLA2 [1], the inhibition at 10 µM was 84.5% and the remaining activity at 10 µM was 15.5 ± 0.3%. Also, the IC50 at recombinant cPLA2 [2] came to 5.3 ± 0.3 µM. Further, the “fold stronger cPLA2 inhibition than 1a (from IC50)” value at recombinant cPLA2 [2] (relative to 1a) is on record as 3 fold. In addition, in the data set with BV-2 cells, the “cytotoxicity (MTS) on BV-2 cells” value is “no significant toxic effects”. For the same compound, in the data set on HEK293T cells, the “cytotoxicity (MTS) on HEK293T cells” value was “no significant toxic effects”. The sPLA2 activity in data set [3] (relative to DMSO control) was determined as 184%.

On to `CCCCCCCCCCCCCCCCSC[C@H](COP(=O)(O)OCC[N+](C)(C)C)NC(=O)CCCCCCCCCCCCCCC` [Thioetheramide-PC, reference compound], for which the “reduction of sPLA2 activity” value in data set [3] was found to be 62%. Further, in data set [4], the IC50 is 2 µM.
